Results reported in patent US20090247559A1 (Exelixis, Inc., priority 2007, published 2009).
Structures can show the parent of a compound that is named as a salt. Where two headings read alike, the source gives them in different places.

Key:
CK2 = CK2 (Homo sapiens, UniProt P68400); assay: CK2 inhibition, biochemical chemiluminescence holoenzyme assay (Kinase Glo, IC50 determination); settings: Table 1 activity class; symbol given only if active; read-out: CK2 IC50 (Activity C)
How it was run: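 Holoenzyme CK2 assay; compounds pre-incubated with substrate and enzyme, then reacted 150 min at 24-27° C. Remaining ATP measured as luminescence with Kinase Glo, and IC50 derived from the signal.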

CDC7 = CDC7 (Homo sapiens, UniProt O00311); assay: CDC7 inhibition, biochemical chemiluminescence assay (Kinase Glo, IC50 determination)
How it was run: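 CDC7 enzyme preincubated with compound 10 min at ambient temperature, then ATP mix in Tris Base added; reaction 90 min at 24-27 °C. Remaining ATP quantified by Kinase Glo luminescence to give IC50.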

[1] = target: PIM (PIM-1, PIM-2, and/or PIM-3); assay: PIM-1, PIM-2 and PIM-3 inhibition, biochemical chemiluminescence assays (Kinase Glo, IC50 determination); settings: Table 1 activity class; PIM refers to PIM-1, PIM-2, and/or PIM-3; read-out: PIM IC50 (Activity B)
[2] = Table 1 activity class, symbol given only if active, read-out: CDC7 IC50 (Activity A)
[3] = compounds in Table 1, read-out: CDC7 IC50 value

Sequence of CDC7 (O00311 whole entry): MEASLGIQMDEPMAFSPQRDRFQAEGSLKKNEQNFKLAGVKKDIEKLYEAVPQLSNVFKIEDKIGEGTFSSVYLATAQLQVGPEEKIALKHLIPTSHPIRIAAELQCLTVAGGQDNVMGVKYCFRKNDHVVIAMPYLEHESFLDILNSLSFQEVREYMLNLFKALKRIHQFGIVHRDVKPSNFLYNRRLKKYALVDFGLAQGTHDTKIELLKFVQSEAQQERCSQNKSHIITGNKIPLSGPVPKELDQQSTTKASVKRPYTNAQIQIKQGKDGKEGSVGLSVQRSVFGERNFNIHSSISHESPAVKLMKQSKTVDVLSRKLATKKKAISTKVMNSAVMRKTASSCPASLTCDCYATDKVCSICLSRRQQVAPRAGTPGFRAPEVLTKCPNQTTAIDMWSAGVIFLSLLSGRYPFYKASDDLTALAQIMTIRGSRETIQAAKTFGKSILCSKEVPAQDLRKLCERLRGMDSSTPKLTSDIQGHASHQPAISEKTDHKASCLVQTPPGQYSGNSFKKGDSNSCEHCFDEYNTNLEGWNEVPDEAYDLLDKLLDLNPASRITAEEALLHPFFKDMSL
Sequence of CDC7 (Q9UBU7 whole entry partner): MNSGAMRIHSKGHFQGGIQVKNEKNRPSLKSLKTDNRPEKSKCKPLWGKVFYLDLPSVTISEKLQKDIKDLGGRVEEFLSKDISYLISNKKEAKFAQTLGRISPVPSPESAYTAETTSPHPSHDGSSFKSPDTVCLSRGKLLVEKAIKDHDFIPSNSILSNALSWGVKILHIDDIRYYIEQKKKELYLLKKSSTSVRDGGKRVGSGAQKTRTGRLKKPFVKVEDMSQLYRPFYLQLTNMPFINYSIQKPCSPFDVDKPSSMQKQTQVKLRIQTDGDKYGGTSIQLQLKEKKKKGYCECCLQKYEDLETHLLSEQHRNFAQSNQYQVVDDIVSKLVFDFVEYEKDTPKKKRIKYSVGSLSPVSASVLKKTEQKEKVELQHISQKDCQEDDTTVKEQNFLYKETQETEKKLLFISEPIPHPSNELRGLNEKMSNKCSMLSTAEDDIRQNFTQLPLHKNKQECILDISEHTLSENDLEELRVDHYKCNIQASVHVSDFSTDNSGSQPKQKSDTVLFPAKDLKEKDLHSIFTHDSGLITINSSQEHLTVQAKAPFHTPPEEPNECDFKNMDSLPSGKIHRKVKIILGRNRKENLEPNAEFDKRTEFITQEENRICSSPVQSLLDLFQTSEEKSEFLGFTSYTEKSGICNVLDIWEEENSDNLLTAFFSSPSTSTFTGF
Sequence of CK2 (P68400 whole entry): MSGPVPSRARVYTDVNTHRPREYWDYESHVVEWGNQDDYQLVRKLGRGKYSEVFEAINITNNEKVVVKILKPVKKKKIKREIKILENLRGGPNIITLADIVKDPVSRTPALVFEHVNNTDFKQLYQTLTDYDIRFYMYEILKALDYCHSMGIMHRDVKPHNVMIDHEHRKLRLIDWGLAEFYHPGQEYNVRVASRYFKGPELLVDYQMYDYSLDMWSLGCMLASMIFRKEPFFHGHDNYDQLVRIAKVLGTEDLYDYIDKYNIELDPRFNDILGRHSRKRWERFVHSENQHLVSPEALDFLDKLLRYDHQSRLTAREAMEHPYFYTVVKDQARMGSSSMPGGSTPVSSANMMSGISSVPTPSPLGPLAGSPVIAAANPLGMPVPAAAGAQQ
Sequence of CK2 (P67870 whole entry partner): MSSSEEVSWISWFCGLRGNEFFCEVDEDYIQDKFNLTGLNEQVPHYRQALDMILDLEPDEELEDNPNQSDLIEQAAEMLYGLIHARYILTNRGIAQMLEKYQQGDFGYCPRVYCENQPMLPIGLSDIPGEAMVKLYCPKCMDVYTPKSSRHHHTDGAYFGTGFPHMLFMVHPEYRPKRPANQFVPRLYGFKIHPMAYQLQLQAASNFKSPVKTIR

Structure (SMILES): O=c1[nH]c(-c2c(Cl)cncc2Cl)nc2c1oc1ccc(Br)cc12 [Compound 107, 8-bromo-2-(3,5-dichloropyridin-4-yl)[1]benzofuro[3,2-d]pyrimidin-4(3H)-one]
- IC50 (CK2): < 10 µM
- IC50 (CDC7; [2]): < 10 µM
- IC50 [1]: < 10 µM

Structure (SMILES): COCC(=O)Nc1ccc(-c2nc3c(oc4ccc(Br)cc43)c(=O)[nH]2)c(Cl)c1 [Compound 319, N-[4-(8-bromo-4-oxo-3,4-dihydro[1]benzofuro[3,2-d]pyrimidin-2-yl)-3-chlorophenyl]-2-(methyloxy)acetamide]
- IC50 (CK2): < 10 µM
- IC50 (CDC7; [2]): < 10 µM
- IC50 [1]: < 10 µM

Structure (SMILES): O=C(NCc1cccc(Cl)c1)C1CCN(Cc2nc3c(oc4ccc(Br)cc43)c(=O)[nH]2)C1 (centres unmarked) [Compound 264, 1-[(8-bromo-4-oxo-3,4-dihydro[1]benzofuro[3,2-d]pyrimidin-2-yl)methyl]-N-[(3-chlorophenyl)methyl]pyrrolidine-3-carboxamide]
- IC50 (CK2): < 10 µM
- IC50 (CDC7; [2]): < 10 µM
- IC50 [1]: < 10 µM

Structure (SMILES): O=c1[nH]c(-c2ccc(Br)cc2Cl)nc2c1oc1ccc(Br)cc12 [Compound 116, 8-bromo-2-(4-bromo-2-chlorophenyl)[1]benzofuro[3,2-d]pyrimidin-4(3H)-one]
- IC50 (CK2): < 10 µM
- IC50 (CDC7; [2]): < 10 µM
- IC50 [1]: < 10 µM

Structure (SMILES): O=C(CCN1CCOCC1)Nc1ccc(-c2nc3c(oc4ccc(Br)cc43)c(=O)[nH]2)c(Cl)c1 [Compound 248, N-[4-(8-bromo-4-oxo-3,4-dihydro[1]benzofuro[3,2-d]pyrimidin-2-yl)-3-chlorophenyl]-3-morpholin-4-ylpropanamide]
- IC50 (CK2): < 10 µM
- IC50 (CDC7; [2]): < 10 µM
- IC50 [1]: < 10 µM

Structure (SMILES): O=c1[nH]c([C@@H]2CC(F)(F)CN2)nc2c1oc1ccc(Br)cc12 [Compound 512, 8-bromo-2-[(2S)-4,4-difluoropyrrolidin-2-yl][1]benzofuro[3,2-d]pyrimidin-4(3H)-one]
- IC50 (CK2): < 10 µM
- IC50 (CDC7; [2]): < 10 µM
- IC50 (CDC7; [3]): < 0.1 µM
- IC50 [1]: < 10 µM

Structure (SMILES): CC[C@@H](C)NCc1nc2c(oc3ccc(Br)cc32)c(=O)[nH]1 [Compound 519, 8-bromo-2-({[(1R)-1-methylpropyl]amino}methyl)[1]benzofuro[3,2-d]pyrimidin-4(3H)-one]
- IC50 (CK2): < 10 µM
- IC50 (CDC7; [2]): < 10 µM
- IC50 (CDC7; [3]): < 0.1 µM
- IC50 [1]: < 10 µM

Structure (SMILES): CN1CCCC(c2nc3c(oc4ccc(Br)cc43)c(=O)[nH]2)C1 (centres unmarked) [Compound 184, dihydrochloride]
- IC50 (CK2): < 10 µM
- IC50 (CDC7; [2]): < 10 µM
- IC50 (CDC7; [3]): < 0.1 µM
- IC50 [1]: < 10 µM

Structure (SMILES): O=c1c2oc3ccc(Br)cc3c2nc2n1CN1CCC[C@H]21 [Compound 452, (13bR)-11-bromo-1,2,3,13b-tetrahydro-7H-[1]benzofuro[3,2-d]pyrrolo[1′,2′:3,4]imidazo[1,5-a]pyrimidin-7-one]
- IC50 (CK2): < 10 µM
- IC50 (CDC7; [2]): < 10 µM
- IC50 (CDC7; [3]): < 0.1 µM
- IC50 [1]: < 10 µM

Structure (SMILES): COc1ccc2oc3c(=O)[nH]c([C@@H]4C[C@@H](F)CN4)nc3c2c1 [Compound 532, 2-[(2S,4R)-4-fluoropyrrolidin-2-yl]-8-(methyloxy)[1]benzofuro[3,2-d]pyrimidin-4(3H)-one]
- IC50 (CK2): < 10 µM
- IC50 (CDC7; [2]): < 10 µM
- IC50 (CDC7; [3]): < 0.1 µM
- IC50 [1]: < 10 µM

Structure (SMILES): O=c1[nH]c(CN2CC[C@H](O)C2)nc2c1oc1ccc(NCCc3cccc(Cl)c3)cc12 [Compound 444, 8-{[2-(3-chlorophenyl)ethyl]amino}-2-{[(3S)-3-hydroxypyrrolidin-1-yl]methyl}[1]benzofuro[3,2-d]pyrimidin-4(3H)-one]
- IC50 (CK2): < 10 µM
- IC50 (CDC7; [2]): < 10 µM
- IC50 [1]: < 10 µM

Structure (SMILES): Nc1ccc(C(=O)Nc2ccc(-c3nc4c(oc5ccc(Br)cc54)c(=O)[nH]3)c(Cl)c2)cn1 [Compound 439, 6-amino-N-[4-(8-bromo-4-oxo-3,4-dihydro[1]benzofuro[3,2-d]pyrimidin-2-yl)-3-chlorophenyl]pyridine-3-carboxamide]
- IC50 (CK2): < 10 µM
- IC50 (CDC7; [2]): < 10 µM
- IC50 [1]: < 10 µM

Structure (SMILES): O=C(Nc1ccc(-c2nc3c(oc4ccc(Br)cc43)c(=O)[nH]2)c(Cl)c1)c1cc(Cl)nc(Cl)c1 [Compound 294, N-[4-(8-bromo-4-oxo-3,4-dihydro[1]benzofuro[3,2-d]pyrimidin-2-yl)-3-chlorophenyl]-2,6-dichloropyridine-4-carboxamide]
- IC50 (CK2): < 10 µM
- IC50 (CDC7; [2]): < 10 µM
- IC50 [1]: < 10 µM

Structure (SMILES): O=C(Nc1ccc(-c2nc3c(oc4ccc(Br)cc43)c(=O)[nH]2)c(Cl)c1)c1cnco1 [Compound 374, N-[4-(8-bromo-4-oxo-3,4-dihydro[1]benzofuro[3,2-d]pyrimidin-2-yl)-3-chlorophenyl]-1,3-oxazole-5-carboxamide]
- IC50 (CK2): < 10 µM
- IC50 (CDC7; [2]): < 10 µM
- IC50 [1]: < 10 µM

Structure (SMILES): O=c1[nH]c(C[C@@H]2CCCNC2)nc2c1oc1ccc(Br)cc12 [Compound 305, 8-bromo-2-[(3S)-piperidin-3-ylmethyl][1]benzofuro[3,2-d]pyrimidin-4(3H)-one]
- IC50 (CK2): < 10 µM
- IC50 (CDC7; [2]): < 10 µM
- IC50 [1]: < 10 µM

Structure (SMILES): O=c1[nH]c(CN2CCC(CO)C2)nc2c1oc1ccc(Br)cc12 (centres unmarked) [Compound 287, 8-bromo-2-{[3-(hydroxymethyl)pyrrolidin-1-yl]methyl}[1]benzofuro[3,2-d]pyrimidin-4(3H)-one]
- IC50 (CK2): < 10 µM
- IC50 (CDC7; [2]): < 10 µM
- IC50 (CDC7; [3]): < 0.1 µM
- IC50 [1]: < 10 µM

Structure (SMILES): CC(C)COc1cccc2oc3c(=O)[nH]c(CN4CC[C@H](O)C4)nc3c12 [Compound 469, 2-{[(3S)-3-hydroxypyrrolidin-1-yl]methyl}-9-[(2-methylpropyl)oxy][1]benzofuro[3,2-d]pyrimidin-4(3H)-one]
- IC50 (CK2): < 10 µM
- IC50 (CDC7; [2]): < 10 µM
- IC50 [1]: < 10 µM

Structure (SMILES): O=c1[nH]c([C@@H]2C[C@@H](O)CN2)nc2c1oc1ccc(Br)cc12 [Compound 488, 8-bromo-2-[(2S,4R)-4-hydroxypyrrolidin-2-yl][1]benzofuro[3,2-d]pyrimidin-4(3H)-one]
- IC50 (CK2): < 10 µM
- IC50 (CDC7; [2]): < 10 µM
- IC50 (CDC7; [3]): < 0.1 µM
- IC50 [1]: < 10 µM

Structure (SMILES): O=C(Nc1ccc(-c2nc3c(oc4ccc(Br)cc43)c(=O)[nH]2)c(Cl)c1)c1ncco1 [Compound 373, N-[4-(8-bromo-4-oxo-3,4-dihydro[1]benzofuro[3,2-d]pyrimidin-2-yl)-3-chlorophenyl]-1,3-oxazole-2-carboxamide]
- IC50 (CK2): < 10 µM
- IC50 (CDC7; [2]): < 10 µM
- IC50 [1]: < 10 µM

Structure (SMILES): O=c1[nH]c(CN2CC[C@H](O)C2)nc2c1oc1ccc3cn[nH]c3c12 [Compound 432, 9-{[(3S)-3-hydroxypyrrolidin-1-yl]methyl}-1H-pyrimido[4′,5′:4,5]furo[2,3-g]indazol-7(8H)-one]
- IC50 (CK2): < 10 µM
- IC50 (CDC7; [2]): < 10 µM
- IC50 (CDC7; [3]): < 0.1 µM
- IC50 [1]: < 10 µM

Structure (SMILES): CN(C)C(=O)CN1CCN(Cc2nc3c(oc4ccc(Br)cc43)c(=O)[nH]2)CC1 [Compound 25, 2-{4-[(8-bromo-4-oxo-3,4-dihydro[1]benzofuro[3,2-d]pyrimidin-2-yl)methyl]piperazin-1-yl}-N,N-dimethylacetamide]
- IC50 (CK2): < 10 µM
- IC50 (CDC7; [2]): < 10 µM
- IC50 [1]: < 10 µM
